In patent US11331290B2, “Niclosamide for the treatment of cancer metastasis” (Max-Delbrück-Centrum für Molekulare Medizin in der …, priority 2011, dated 2022):

Tests used:
Format in all cases: cell-based, human
DLD-1 cells [1] = experiment: Boyden chamber transwell migration assay; conditions: 1 μM, 24 h
Description: (§1) HCT116, SW620, LS174T, SW480 and DLD-1 cells were used in cell migration and invasion analysis performed with Boyden chamber assay. 400 μL containing 2.5×10^5 cells were seeded into each transwell chamber with filter membranes of 12.0 μm pore size (Millipore, Schwalbach, Germany). For invasion filter membranes were coated with 50 μL Matrigel (diluted 1:3 in RPMI-1640; BD Biosciences) 10 minutes before cells were seeded. Fresh medium (600 μL) were added to the bottom chamber and cells were allowed to attach to the insets for 15 hours. Both chambers were treated with 1 μM niclosamide or the respective amount of DMSO and incubated at 37° C. and 5% CO2 in a humidified incubator for 24 hours. Afterwards insets were removed and cells that had migrated through the membrane to the lower chamber were trypsinized and counted in a Neubauer chamber (LO-Laboroptik, Bad Homburg, Germany). Each well was counted ten times. Each migration or invasion experiment was performed in duplicate. The average number of migrated or invaded cells was determined for at least three independent experiments.
(§2) (A) S100A4 expression under niclosamide treatment. Cells were treated with 1 μM niclosamide for 24 hours. S100A4 expression was analyzed with qRT-PCR and immunoblot. (B) Cell migration under niclosamide treatment. Migration rates of cells treated with 1 μM niclosamide for 24 hours were determined in a Boyden chamber assay values were normalized to solvent-treated SW620 cells. (C) Cell invasion under niclosamide treatment. Cells were seeded onto Matrigel covered transwells and treated with 1 μM niclosamide for 24 hours. Invaded cells in the lower chamber were counted and normalized to solvent-treated SW620 cells. Differences in solvent vs. niclosamide-treated cells were analyzed by Student's t test. Data represent mean±SE of at least two independent experiments each performed in triplicate. (D) Directed migration under niclosamide treatment. Wounds of 300 μM width were set in a 60% confluent monolayer of cells on day 1. Cells were treated daily with 1 μM niclosamide for 4 days. Microphotographs of day 4 are presented here with black lines indicating margins of the wound on day 1; scale bar represents 200 μM. Directed migration data shown are representatives of three independent experiments. (E) Adhesive cell proliferation under niclosamide treatment. Cells were treated daily with 1 μM niclosamide. The amount of viable cells per well was determined by MTT assay. (F) Anchorage-independent cell growth under niclosamide treatment. Cells were plated as single cells into 0.33% (w/v) agarose and treatment (solvent or 1 μM niclosamide) containing medium. After 7 days colonies were visualized by light microscopy at 10× (overview) and 40× (single colony) magnification. (G) Quantification of colonies formed. Number of colonies (of more than 4 cells) was counted and normalized to solvent-treated SW620 cells. Differences in solvent vs. niclosamide-treated cells were analyzed by Student's t test. Data represent mean mean±SE of at least two independent experiments each performed in duplicates.

LS174T cells [2] = experiment: Boyden chamber transwell migration assay; conditions: 1 μM, 24 h
Description: as §1, §2

DLD-1 cells [3] = experiment: Boyden chamber invasion assay (Matrigel); conditions: 1 μM, 24 h
Description: as §1, §2

LS174T cells [4] = experiment: Boyden chamber invasion assay (Matrigel); conditions: 1 μM, 24 h
Description: as §1, §2

SW480 cells = experiment: Boyden chamber invasion assay (Matrigel); conditions: 1 μM, 24 h
Description: as §1, §2

SW620 cells = experiment: Boyden chamber invasion assay (Matrigel); conditions: 1 μM, 24 h
Description: as §1, §2

HCT116-S100A4 cells = experiment: Wound healing assay (directed migration); conditions: 1 μM daily, 4 days
Description: (§3) For wound healing assay HCT116, SW620, LS174T, SW480 and DLD-1 cells were grown to form 60% confluent monolayers of cells in which a wound of about 300 μm width was inflicted with a sterile pipette tip. The medium was exchanged to remove non-adherent cells and the wounded monolayer was treated with 1 μM niclosamide or the respective amount of DMSO every 24 hours for 4 consecutive days. The progress of wound closure was monitored with microphotographs of 10× magnification taken with the Leica DM IL light microscope (Leica Microsystems) on day 0 and day 4. The wound healing experiment was performed three independent times.
(§4) (A) Cell migration of HCT116-vector and HCT116-S100A4 cells exposed to niclosamide treatment. Cells were treated with 1 μM niclosamide for 24 hours and migration rates were measured with Boyden chamber assay. […] Cells were treated with 1 μM niclosamide for 24 hours and cell invasion was determined by Boyden chamber assay. (C) Directed migration of HCT116-vector and HCT116-S100A4 cells exposed to niclosamide treatment analyzed by wound healing assay. […] Cells were treated daily with 1 μM niclosamide and cell viability was determined with MTT assay. […] (F) Quantification of colonies formed. Number of colonies (of more than 4 cells) was counted and normalized to solvent-treated HCT116-vector cells. […]

HCT116-vector cells = experiment: Wound healing assay (directed migration); conditions: 1 μM daily, 4 days
Description: as §3, §4

[5] = tested on: SW620, LS174T, SW480 and DLD-1 cells; experiment: Anchorage-dependent cell proliferation (MTT); conditions: all four cell lines, 1 μM daily
Description: For cell proliferation determination of HCT116, SW620, LS174T, SW480 and DLD-1 cells 2×10^3 cells were seeded in 96-well-plates (for each day one plate) and were given 24 hours to attach to the bottom of the well. Cells were from then on treated daily with 1 μM niclosamide or the respective amount of DMSO. For determination of viable cells 3-(4,5-dimethyl-2-thiazol)-2,5-diphenyl-2H-tetrazolium bromide (MTT; Sigma) was added to a final concentration of 0.5 mg per mL and incubated for 3 hours at 37° C. and 5% CO2 in a humidified incubator. […] Crystallized MTT was resolved by 10% SDS in 10 mM HCl and the absorption was measured at 560 nm. […] The average MTT metabolisation was determined of two independent experiments each performed in triplicate.
(A) S100A4 expression under niclosamide treatment. […] S100A4 expression was analyzed with qRT-PCR and immunoblot. […] Migration rates of cells treated with 1 μM niclosamide for 24 hours were determined in a Boyden chamber assay values were normalized to solvent-treated SW620 cells. […] Invaded cells in the lower chamber were counted and normalized to solvent-treated SW620 cells. Differences in solvent vs. niclosamide-treated cells were analyzed by Student's t test. […] The amount of viable cells per well was determined by MTT assay. […] (G) Quantification of colonies formed. Number of colonies (of more than 4 cells) was counted and normalized to solvent-treated SW620 cells. […]

**Q.** Which cell migration rate (DLD-1 cells [1]) does the source give for `O=C(Nc1ccc([N+](=O)[O-])cc1Cl)c1cc(Cl)ccc1O` [niclosamide, 2′,5-dichloro-4′-nitrosalicylanilide] here?
**A.** not further affected

**Q.** What about the “migration, mean difference control vs niclosamide” value (LS174T cells [2]) of the same compound?
**A.** 41.3%

**Q.** And the “cell migration rate, mean % (normalized to solvent-treated SW620 cells)” value (LS174T cells [2]; solvent control 68.2%)?
**A.** 26.8%

**Q.** What about the invasion rate (DLD-1 cells [3]) of the same compound?
**A.** not affected

**Q.** And the “invasion, mean difference control vs niclosamide” value (“invasion, mean difference control” for short) (LS174T cells [4])?
**A.** 39.5%

**Q.** What about the “cell invasion, mean % (normalized to solvent-treated SW620 cells)” value (LS174T cells [4]; solvent control 63.2%) of the same compound?
**A.** 23.6%

**Q.** What about the “invasion, mean difference control” value (SW480 cells) of the same compound?
**A.** 34.9%

**Q.** And the “cell invasion, mean % (normalized to solvent-treated SW620 cells)” value (SW480 cells; solvent control 47.7%)?
**A.** 12.8%

**Q.** What about the “invasion, mean difference control” value (SW620 cells) of the same compound?
**A.** 74.9%

**Q.** What about the “cell invasion, mean % (normalized to solvent-treated SW620 cells)” value (SW620 cells; solvent control 100.0%) of the same compound?
**A.** 25.1%

**Q.** And the wound closure (HCT116-S100A4 cells)?
**A.** able to migrate into the wound and close the gap

**Q.** And the wound closure (HCT116-vector cells)?
**A.** impaired

**Q.** And the anchorage-dependent cell proliferation [5]?
**A.** inhibited
